Numbered stars: 1 amine (or outer) side, 2 acyl side, 3 side chain; on linkers, the order of the positions; unused ones are H or OH. Side chains are listed from the residue outwards. Peptide text beside a SMILES is read from it. * marks the point of attachment. C18 diacid = O=C(O)CCCCCCCCCCCCCCCCC(=O)*; γGlu = O=C(O)[C@H](CCC(=O)[*:2])N[*:1]; AEEA = NCCOCCOCC(=O)O
Test: Assay (II) PK i.v. minipig, in vivo half-life
Set-up: species or system Göttingen mini-pigs
Conditions: male, Göttingen, minipig, iv, Half-life minipig, Assay (II)
Method in brief: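 Plasma levels after a single 6 nmol/kg intravenous dose in five male Göttingen mini-pigs were measured by TFC/LC/MS/MS against spiked-plasma calibration, sampling to 240 h. Vehicle: 50 mM K2HPO4, 0.05% tween 80, pH 8.0. Individual profiles analysed non-compartmentally for half-life.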
In the case of `CC[C@H](C)[C@H](NC(=O)[C@H](Cc1ccc(O)cc1)NC(=O)[C@H](CCCNC(=N)N)NC(=O)[C@H](CCCNC(=N)N)NC(=O)[C@H](CC(C)C)NC(=O)[C@H](CC(=O)O)NC(=O)[C@H](C)NC(=O)[C@H](C)NC(=O)[C@H](Cc1ccc(O)cc1)NC(=O)[C@H](CCC(N)=O)NC(=O)[C@H](C)NC(=O)[C@H](CCSC)NC(=O)[C@H](CCC(N)=O)NC(=O)[C@H](CCC(=O)O)NC(=O)[C@@H]1CCCN1C(=O)[C@@H](NC(=O)[C@H](C)NC(=O)[C@H](CC(N)=O)NC(=O)[C@H](CC(=O)O)NC(=O)CNC(=O)[C@@H]1CCCN1C(=O)[C@H](Cc1ccc(O)cc1)NC(=O)[C@@H](NC(=O)[C@@H]1CCCN1C(=O)[C@H](CCC(=O)O)NC(=O)[C@H](CC(C)C)NC(=O)[C@@H]1CCCN1)C(C)C)[C@@H](C)O)C(=O)N[C@@H](CC(N)=O)C(=O)N[C@@H](CCSC)C(=O)N[C@@H](CCCCNC(=O)COCCOCCNC(=O)COCCOCCNC(=O)CC[C@H](NC(=O)CCCCCCCCCCCCCCCCC(=O)O)C(=O)O)C(=O)N[C@H](C(=O)N[C@@H](CCCNC(=N)N)C(=O)N1CCC[C@H]1C(=O)N[C@@H](CCCNC(=N)N)C(=O)N[C@@H](Cc1ccc(O)cc1)C(N)=O)[C@@H](C)O` [Compound C] (H-PLEPVYPGDNATPEQMAQYAADLRRYINMK([AEEA-AEEA-γGlu-C18 diacid])TRPRY-NH2; N-terminus and C-terminus assumed), the half-life is reported as 94 h. Work on `CC[C@H](C)[C@H](NC(=O)[C@H](Cc1ccc(O)cc1)NC(=O)[C@H](CCCNC(=N)N)NC(=O)[C@H](CCCNC(=N)N)NC(=O)[C@H](CC(C)C)NC(=O)[C@H](CC(=O)O)NC(=O)[C@H](C)NC(=O)[C@H](C)NC(=O)[C@H](Cc1ccc(O)cc1)NC(=O)[C@H](CCC(N)=O)NC(=O)[C@H](C)NC(=O)[C@H](CCCCNC(=O)COCCOCCNC(=O)COCCOCCNC(=O)CC[C@H](NC(=O)CCCCCCCCCCCCCCCCC(=O)O)C(=O)O)NC(=O)[C@H](CCC(N)=O)NC(=O)[C@H](CCC(=O)O)NC(=O)[C@@H]1CCCN1C(=O)[C@@H](NC(=O)[C@H](C)NC(=O)[C@H](CC(N)=O)NC(=O)[C@H](CC(=O)O)NC(=O)CNC(=O)[C@@H]1CCCN1C(=O)[C@H](Cc1ccc(O)cc1)NC(=O)[C@@H](NC(=O)[C@@H]1CCCN1C(=O)[C@H](CCC(=O)O)NC(=O)[C@@H](N)CC(C)C)C(C)C)[C@@H](C)O)C(=O)N[C@@H](CC(N)=O)C(=O)N[C@@H](CCSC)C(=O)N[C@@H](CC(C)C)C(=O)N[C@H](C(=O)N[C@@H](CCCNC(=N)N)C(=O)N1CCC[C@H]1C(=O)N[C@@H](CCCNC(=N)N)C(=O)N[C@@H](Cc1ccc(O)cc1)C(N)=O)[C@@H](C)O` [Compound AY] (H-LEPVYPGDNATPEQK([AEEA-AEEA-γGlu-C18 diacid])AQYAADLRRYINMLTRPRY-NH2; N-terminus and C-terminus assumed) yielded a half-life of 25 h. `CC[C@H](C)[C@H](NC(=O)[C@H](Cc1ccc(O)cc1)NC(=O)[C@H](CCCNC(=N)N)NC(=O)[C@H](CCCNC(=N)N)NC(=O)[C@H](CCCCNC(=O)COCCOCCNC(=O)COCCOCCNC(=O)CC[C@H](NC(=O)CCCCCCCCCCCCCCCCC(=O)O)C(=O)O)NC(=O)[C@H](CC(=O)O)NC(=O)[C@H](C)NC(=O)[C@H](C)NC(=O)[C@H](Cc1ccc(O)cc1)NC(=O)[C@H](CCC(N)=O)NC(=O)[C@H](C)NC(=O)[C@H](CCSC)NC(=O)[C@H](CCC(N)=O)NC(=O)[C@H](CCC(=O)O)NC(=O)[C@@H]1CCCN1C(=O)[C@@H](NC(=O)[C@H](C)NC(=O)[C@H](CC(N)=O)NC(=O)[C@H](CC(=O)O)NC(=O)CNC(=O)[C@@H]1CCCN1C(=O)[C@H](Cc1ccc(O)cc1)NC(=O)[C@@H](NC(=O)[C@@H]1CCCN1C(=O)[C@H](CCC(=O)O)NC(=O)[C@H](CC(C)C)NC(=O)[C@@H]1CCCN1)C(C)C)[C@@H](C)O)C(=O)N[C@@H](CC(N)=O)C(=O)N[C@@H](CCSC)C(=O)N[C@@H](CC(C)C)C(=O)N[C@H](C(=O)N[C@@H](CCCNC(=N)N)C(=O)N1CCC[C@H]1C(=O)N[C@@H](CCCNC(=N)N)C(=O)N[C@@H](Cc1ccc(O)cc1)C(N)=O)[C@@H](C)O` [Compound J] (H-PLEPVYPGDNATPEQMAQYAADK([AEEA-AEEA-γGlu-C18 diacid])RRYINMLTRPRY-NH2; N-terminus and C-terminus assumed) gave a half-life of 44 h. In the case of `CC[C@H](C)[C@H](NC(=O)[C@H](Cc1ccc(O)cc1)NC(=O)[C@H](CCCNC(=N)N)NC(=O)[C@H](CCCNC(=N)N)NC(=O)[C@H](CC(C)C)NC(=O)[C@H](CC(=O)O)NC(=O)[C@H](C)NC(=O)[C@H](C)NC(=O)[C@H](Cc1ccc(O)cc1)NC(=O)[C@H](CCC(N)=O)NC(=O)[C@H](CCCCNC(=O)COCCOCCNC(=O)COCCOCCNC(=O)CC[C@H](NC(=O)CCCCCCCCCCCCCCCCC(=O)O)C(=O)O)NC(=O)[C@H](CCSC)NC(=O)[C@H](CCC(N)=O)NC(=O)[C@H](CCC(=O)O)NC(=O)[C@@H]1CCCN1C(=O)[C@@H](NC(=O)[C@H](C)NC(=O)[C@H](CC(N)=O)NC(=O)[C@H](CC(=O)O)NC(=O)CNC(=O)[C@@H]1CCCN1C(=O)[C@H](Cc1ccc(O)cc1)NC(=O)[C@@H](NC(=O)[C@@H]1CCCN1C(=O)[C@H](CCC(=O)O)NC(=O)[C@H](CC(C)C)NC(=O)[C@@H]1CCCN1)C(C)C)[C@@H](C)O)C(=O)N[C@@H](CC(N)=O)C(=O)N[C@@H](CCSC)C(=O)N[C@@H](CC(C)C)C(=O)N[C@H](C(=O)N[C@@H](CCCNC(=N)N)C(=O)N1CCC[C@H]1C(=O)N[C@@H](CCCNC(=N)N)C(=O)N[C@@H](Cc1ccc(O)cc1)C(N)=O)[C@@H](C)O` [Compound P] (H-PLEPVYPGDNATPEQMK([AEEA-AEEA-γGlu-C18 diacid])QYAADLRRYINMLTRPRY-NH2; N-terminus and C-terminus assumed), the half-life is reported as 71 h. `CC[C@H](C)[C@H](NC(=O)[C@H](Cc1ccc(O)cc1)NC(=O)[C@H](CCCNC(=N)N)NC(=O)[C@H](CCCNC(=N)N)NC(=O)[C@H](CC(C)C)NC(=O)[C@H](CC(=O)O)NC(=O)[C@H](C)NC(=O)[C@H](C)NC(=O)[C@H](Cc1ccc(O)cc1)NC(=O)[C@H](CCC(N)=O)NC(=O)[C@H](C)NC(=O)[C@H](CCSC)NC(=O)[C@H](CCC(N)=O)NC(=O)[C@H](CCC(=O)O)NC(=O)[C@@H]1CCCN1C(=O)[C@@H](NC(=O)[C@H](C)NC(=O)[C@H](CC(N)=O)NC(=O)[C@H](CC(=O)O)NC(=O)CNC(=O)[C@@H]1CCCN1C(=O)[C@H](CCCCNC(=O)COCCOCCNC(=O)COCCOCCNC(=O)CC[C@H](NC(=O)CCCCCCCCCCCCCCCCC(=O)O)C(=O)O)NC(=O)[C@@H](NC(=O)[C@@H]1CCCN1C(=O)[C@H](CCC(=O)O)NC(=O)[C@@H](N)CC(C)C)C(C)C)[C@@H](C)O)C(=O)N[C@@H](CC(N)=O)C(=O)N[C@@H](CCSC)C(=O)N[C@@H](CC(C)C)C(=O)N[C@H](C(=O)N[C@@H](CCCNC(=N)N)C(=O)N1CCC[C@H]1C(=O)N[C@@H](CCCNC(=N)N)C(=O)N[C@@H](Cc1ccc(O)cc1)C(N)=O)[C@@H](C)O` [Compound BI] gave a half-life of 9 h. Work on `CC[C@H](C)[C@H](NC(=O)[C@H](CCCCNC(=O)COCCOCCNC(=O)COCCOCCNC(=O)CC[C@H](NC(=O)CCCCCCCCCCCCCCCCC(=O)O)C(=O)O)NC(=O)[C@H](CCCNC(=N)N)NC(=O)[C@H](CCCNC(=N)N)NC(=O)[C@H](CC(C)C)NC(=O)[C@H](CC(=O)O)NC(=O)[C@H](C)NC(=O)[C@H](C)NC(=O)[C@H](Cc1ccc(O)cc1)NC(=O)[C@H](CCC(N)=O)NC(=O)[C@H](C)NC(=O)[C@H](CCSC)NC(=O)[C@H](CCC(N)=O)NC(=O)[C@H](CCC(=O)O)NC(=O)[C@@H]1CCCN1C(=O)[C@@H](NC(=O)[C@H](C)NC(=O)[C@H](CC(N)=O)NC(=O)[C@H](CC(=O)O)NC(=O)CNC(=O)[C@@H]1CCCN1C(=O)[C@H](Cc1ccc(O)cc1)NC(=O)[C@@H](NC(=O)[C@@H]1CCCN1C(=O)[C@H](CCC(=O)O)NC(=O)[C@H](CC(C)C)NC(=O)[C@@H]1CCCN1)C(C)C)[C@@H](C)O)C(=O)N[C@@H](CC(N)=O)C(=O)N[C@@H](CCSC)C(=O)N[C@@H](CC(C)C)C(=O)N[C@H](C(=O)N[C@@H](CCCNC(=N)N)C(=O)N1CCC[C@H]1C(=O)N[C@@H](CCCNC(=N)N)C(=O)N[C@@H](Cc1ccc(O)cc1)C(N)=O)[C@@H](C)O` [Compound G] (H-PLEPVYPGDNATPEQMAQYAADLRRK([AEEA-AEEA-γGlu-C18 diacid])INMLTRPRY-NH2; N-terminus and C-terminus assumed) yielded a half-life of 96 h. `CC[C@H](C)[C@H](NC(=O)[C@H](Cc1ccc(O)cc1)NC(=O)[C@H](CCCNC(=N)N)NC(=O)[C@H](CCCNC(=N)N)NC(=O)[C@H](CCCCNC(=O)COCCOCCNC(=O)COCCOCCNC(=O)CC[C@H](NC(=O)CCCCCCCCCCCCCCCCC(=O)O)C(=O)O)NC(=O)[C@H](CC(=O)O)NC(=O)[C@H](C)NC(=O)[C@H](C)NC(=O)[C@H](Cc1ccc(O)cc1)NC(=O)[C@H](CCC(N)=O)NC(=O)[C@H](C)NC(=O)[C@H](CCSC)NC(=O)[C@H](CCC(N)=O)NC(=O)[C@H](CCC(=O)O)NC(=O)[C@@H]1CCCN1C(=O)[C@@H](NC(=O)[C@H](C)NC(=O)[C@H](CC(N)=O)NC(=O)[C@H](CC(=O)O)NC(=O)CNC(=O)[C@@H]1CCCN1C(=O)[C@H](Cc1ccc(O)cc1)NC(=O)[C@@H](NC(=O)[C@@H]1CCCN1C(=O)[C@H](CCC(=O)O)NC(=O)[C@@H](N)CC(C)C)C(C)C)[C@@H](C)O)C(=O)N[C@@H](CC(N)=O)C(=O)N[C@@H](CCSC)C(=O)N[C@@H](CC(C)C)C(=O)N[C@H](C(=O)N[C@@H](CCCNC(=N)N)C(=O)N1CCC[C@H]1C(=O)N[C@@H](CCCNC(=N)N)C(=O)N[C@@H](Cc1ccc(O)cc1)C(N)=O)[C@@H](C)O` [Compound AR] (H-LEPVYPGDNATPEQMAQYAADK([AEEA-AEEA-γGlu-C18 diacid])RRYINMLTRPRY-NH2; N-terminus and C-terminus assumed) showed a half-life of 31 h.
